Assay [1] deals with T1, PfHAD2 (HAD2, 6×His-HAD2) (Plasmodium falciparum, UniProt Q8I5F4).
T1 construct: gene PF3D7_1226300; native mass about 33 kDa
Briefly: EnzChek phosphate release assay (MESG/PNP coupled). In kind it is biochemical. Conditions: 5 mM substrate, 730 nM enzyme, 20 mM MgCl2, 50 mM Tris-HCl pH 8.0; normalised to D26A mutant.

The target in assay [2] is T1, PfHAD2 (HAD2, 6×His-HAD2). Briefly: continuous absorbance at […] nm. It counts as biochemical. Conditions: 10 mM pNPP, 1.2 µM enzyme, 5 mM MgCl2, 50 mM Tris-HCl pH 7.5, 37°C.

On to `O=P(O)(O)OC(CO)CO` [glycerol 2-phosphate], for which the “EnzChek phosphate release assay (MESG/PNP coupled)” value in assay [1] is listed as “PfHAD2 is a phosphatase with activity against small phosphosubstrates, such as glc2P”.
As for `O=[N+]([O-])c1ccc(OP(=O)(O)O)cc1` [para-nitrophenyl phosphate], the “continuous absorbance at 405 nm” value in assay [2] was “confirmed the phosphatase activity of recombinant PfHAD2 using para-nitrophenyl phosphate (pNPP)”.

(Values after paper PMC6234871 (mBio, 2018).)
